This note sets out measurements from patent US12194051B2, “5-azaindazole derivatives as adenosine receptor antagonists” (MERCK PATENT GMBH, priority 2018, dated 2025).

One test deals with T1, human A2A receptors (Homo sapiens, UniProt P29274).
T1 construct: expressed in transfected cells; host or cells: HEK293
The test is described as follows: Inhibition of human A2A receptor in recombinant HEK293 cells, cAMP quantification (HTRF). Conditions: read-out: A2A (Category). In kind it is cell-based. The protocol:
(§1) The functional activities of human A2A and A2B receptors were determined by quantification of cAMP, being the second messenger for adenosine receptors.
(§2) After a 15 min incubation, HTRF reagents (cAMP dynamic 2, Cis Bio) were added and the cellular cAMP levels were determined using the ENVISION (Perkin Elmer) plate reader.
For orientation: In TR-FRET formats the signal depends on donor and acceptor labels being close together.

In another test the target is T2, human A2B receptors (Homo sapiens, UniProt P29275).
T2 construct: expressed in transfected cells; host or cells: HEK293
T2 sequence (P29275 1-332): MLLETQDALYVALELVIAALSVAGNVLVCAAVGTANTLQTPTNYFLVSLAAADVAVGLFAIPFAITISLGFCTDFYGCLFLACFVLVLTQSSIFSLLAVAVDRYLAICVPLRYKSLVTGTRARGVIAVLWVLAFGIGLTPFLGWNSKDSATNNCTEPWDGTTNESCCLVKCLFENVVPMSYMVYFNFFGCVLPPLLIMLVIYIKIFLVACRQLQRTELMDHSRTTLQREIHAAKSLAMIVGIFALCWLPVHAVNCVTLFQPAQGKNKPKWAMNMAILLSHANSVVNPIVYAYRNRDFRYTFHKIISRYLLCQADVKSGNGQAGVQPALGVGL
The test is described as follows: Inhibition of human A2B receptor in recombinant HEK293 cells, cAMP quantification (HTRF). In kind it is cell-based. Conditions: read-out: A2B (Category). The procedure: as §1, §2

Some results are limits rather than exact numbers.

T1 sequence (P29274 whole entry): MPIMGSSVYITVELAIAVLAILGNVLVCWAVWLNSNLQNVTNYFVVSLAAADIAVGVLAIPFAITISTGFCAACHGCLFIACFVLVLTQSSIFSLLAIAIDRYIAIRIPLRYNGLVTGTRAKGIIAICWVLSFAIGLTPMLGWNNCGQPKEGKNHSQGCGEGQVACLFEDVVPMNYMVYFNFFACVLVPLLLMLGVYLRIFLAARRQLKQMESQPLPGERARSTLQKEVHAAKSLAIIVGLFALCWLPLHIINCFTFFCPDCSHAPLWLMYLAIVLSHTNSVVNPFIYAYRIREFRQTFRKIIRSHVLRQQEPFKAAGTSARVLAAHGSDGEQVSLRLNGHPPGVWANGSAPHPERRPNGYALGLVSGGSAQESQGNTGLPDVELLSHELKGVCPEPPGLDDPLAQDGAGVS

Turning to `O=C(c1cc2c(cn1)c(Nc1cc(Cl)c(F)cn1)nn2CC(F)(F)F)N1CCCOCC1` [Compound 66, [3-[(4-chloro-5-fluoro-2-pyridyl)amino]-1-(2,2,2-trifluoroethyl)pyrazolo[4,3-c]pyridin-6-yl]-(1,4-oxazepan-4-yl)methanone], the IC50 was under 100 nM at human A2A receptors and under 1000 nM on human A2B receptors.

Take `O=C(c1cc2c(cn1)c(Nc1cncs1)nn2CC(F)(F)F)N1CCCOCC1` [Compound 84, [1,4]Oxazepan-4-yl-[3-(thiazol-5-ylamino)-1-(2,2,2-trifluoro-ethyl)-1H-pyrazolo[4,3-c]pyridin-6-yl]methanone]: the IC50 on human A2A receptors and on human A2B receptors was under 100 nM each time.

On to `CS(=O)(=O)Cn1nc(Nc2cc(Cl)ccn2)c2cnc(C(=O)N3CCCOCC3)cc21` [Compound 79, [3-(4-Chloro-pyridin-2-ylamino)-1-methanesulfonylmethyl-1H-pyrazolo[4,3-c]pyridin-6-yl]-[1,4]oxazepan-4-yl-methanone], for which the IC50 at human A2A receptors and at human A2B receptors was under 100 nM throughout.

`CC1(O)CCN(C(=O)c2cc3c(cn2)c(Nc2ccccn2)nn3CC(F)(F)F)CC1` [Compound 53, (4-hydroxy-4-methyl-1-piperidyl)-[3-(2-pyridylamino)-1-(2,2,2-trifluoroethyl)pyrazolo[4,3-c]pyridin-6-yl]methanone]: the IC50 on human A2A receptors and on human A2B receptors was under 100 nM throughout.

Turning to `[2H]C1([2H])COCCN(C(=O)c2cc3c(cn2)c(Nc2cnccn2)nn3CC(F)(F)F)C1` [Compound 121], the IC50 at human A2A receptors was under 100 nM; on human A2B receptors, under 1000 nM.

Regarding `CS(=O)(=O)Cn1nc(Nc2ccc(F)cc2)c2cnc(C(=O)N3[C@@H]4CC[C@H]3C[C@@H](O)C4)cc21` [Compound 30, [3-(4-fluoroanilino)-1-(methylsulfonylmethyl)pyrazolo[4,3-c]pyridin-6-yl]-(3-endo-hydroxy-8-azabicyclo[3.2.1]octan-8-yl)methanone], the IC50 at human A2A receptors was under 100 nM; on human A2B receptors, under 1000 nM.

On to `O=C(c1cc2c(cn1)c(Nc1cnc(Cl)cn1)nn2CC(F)(F)F)N1CCC(O)CC1` [Compound 75, [3-(5-Chloro-pyrazin-2-ylamino)-1-(2,2,2-trifluoro-ethyl)-1H-pyrazolo[4,3-c]pyridin-6-yl]-(4-hydroxy-piperidin-1-yl)-methanone], for which the IC50 on human A2A receptors and at human A2B receptors was under 100 nM each time.

Consider `O=C(c1cc2c(cn1)c(Nc1ccc(F)cn1)nn2CC(F)(F)F)N1CCC[C@@H](CO)C1` [Compound 101, [3-[(5-fluoro-2-pyridyl)amino]-1-(2,2,2-trifluoroethyl)pyrazolo[4,3-c]pyridin-6-yl]-[(3R)-3-(hydroxymethyl)-1-piperidyl]methanone], for which the IC50 on human A2A receptors and on human A2B receptors was under 100 nM throughout.

For the compound `COc1ccnc(Nc2nn(CC(F)(F)F)c3cc(C(=O)N4CCCOCC4)ncc23)c1` [Compound 63, [3-[(4-methoxy-2-pyridyl)amino]-1-(2,2,2-trifluoroethyl)pyrazolo[4,3-c]pyridin-6-yl]-(1,4-oxazepan-4-yl)methanone], the IC50 on human A2A receptors and on human A2B receptors was under 100 nM throughout.

`O=C(c1cc2c(cn1)c(Nc1cc(F)ccn1)nn2CC(F)(F)F)N1CCC(F)CC1` [Compound 116, (4-Fluoro-piperidin-1-yl)-[3-(4-fluoro-pyridin-2-ylamino)-1-(2,2,2-trifluoro-ethyl)-1H-pyrazolo[4,3-c]pyridin-6-yl]-methanone]: the IC50 at human A2A receptors and at human A2B receptors was under 100 nM in each case.

Take `CC(C)C1(O)CCN(C(=O)c2cc3c(cn2)c(Nc2cc(F)ccn2)nn3CC(F)(F)F)CC1` [Compound 114, [3-(4-Fluoro-pyridin-2-ylamino)-1-(2,2,2-trifluoro-ethyl)-1H-pyrazolo[4,3-c]pyridin-6-yl]-(4-isopropyl-4-hydroxypiperidin-1-yl)-methanone]: the IC50 on human A2A receptors and on human A2B receptors was under 100 nM throughout.

In the case of `O=C(c1cc2c(cn1)c(Nc1ccc(F)cc1)nn2CC(F)(F)F)N1CC2CCC(C1)O2` [Compound 21, [3-(4-fluoroanilino)-1-(2,2,2-trifluoroethyl)pyrazolo[4,3-c]pyridin-6-yl]-(8-oxa-3-azabicyclo[3.2.1]octan-3-yl)methanone], the IC50 on human A2A receptors and at human A2B receptors was under 100 nM throughout.

For the compound `N#Cc1ccc(Nc2nn(CC(F)(F)F)c3cc(C(=O)N4CCCOCC4)ncc23)cc1` [Compound 13, 4-[[6-(1,4-oxazepane-4-carbonyl)-1-(2,2,2-trifluoroethyl)pyrazolo[4,3-c]pyridin-3-yl]amino]benzonitrile], the IC50 on human A2A receptors is under 100 nM; on human A2B receptors, under 1000 nM.

Consider `O=C(c1cc2c(cn1)c(Nc1ccc(F)cc1)nn2CC(F)(F)F)N1[C@@H]2CC[C@H]1C[C@@H](O)C2` [Compound 26, [3-(4-fluoroanilino)-1-(2,2,2-trifluoroethyl)pyrazolo[4,3-c]pyridin-6-yl]-(3-endo-hydroxy-8-azabicyclo[3.2.1]octan-8-yl)methanone], for which the IC50 is under 100 nM at human A2A receptors and under 1000 nM on human A2B receptors.

Turning to `O=C(c1cc2c(cn1)c(Nc1cccc(F)c1)nn2CC(F)(F)F)N1CCC(O)CC1` [Compound 23, [3-(3-fluoroanilino)-1-(2,2,2-trifluoroethyl)pyrazolo[4,3-c]pyridin-6-yl]-(4-hydroxy-1-piperidyl)methanone], the IC50 at human A2A receptors and at human A2B receptors was under 100 nM each time.

Turning to `O=C(c1cc2c(cn1)c(Nc1cc(F)c(Cl)cn1)nn2CC(F)(F)F)N1CCCOCC1` [Compound 71, [3-[(5-chloro-4-fluoro-2-pyridyl)amino]-1-(2,2,2-trifluoroethyl)pyrazolo[4,3-c]pyridin-6-yl]-(1,4-oxazepan-4-yl)methanone], the IC50 at human A2A receptors and at human A2B receptors was under 100 nM in each case.

For `O=C(c1cc2c(cn1)c(Nc1ccc(Cl)cc1)nn2CC(F)(F)F)N1CCCOCC1` [Compound 38, [3-(4-chloroanilino)-1-(2,2,2-trifluoroethyl)pyrazolo[4,3-c]pyridin-6-yl]-(1,4-oxazepan-4-yl)methanone], the IC50 on human A2A receptors and at human A2B receptors was under 100 nM in each case.

As for `O=C(c1cc2c(cn1)c(Nc1cccc(F)n1)nn2CC(F)(F)F)N1CCCOCC1` [Compound 49, [3-[(6-fluoro-2-pyridyl)amino]-1-(2,2,2-trifluoroethyl)pyrazolo[4,3-c]pyridin-6-yl]-(1,4-oxazepan-4-yl)methanone], the IC50 on human A2A receptors and on human A2B receptors was under 100 nM each time.

For the compound `O=C(c1cc2c(cn1)c(Nc1cnccn1)nn2CC(F)(F)F)N1CCC(O)CC1` [Compound 74, (4-Hydroxy-piperidin-1-yl)-[3-(pyrazin-2-ylamino)-1-(2,2,2-trifluoro-ethyl)-1H-pyrazolo[4,3-c]pyridin-6-yl]-methanone], the IC50 on human A2A receptors and at human A2B receptors was under 100 nM throughout.

As for `CC1(O)CCN(C(=O)c2cc3c(cn2)c(Nc2ccc(F)cc2)nn3CC(F)(F)F)CC1` [Compound 34, [3-(4-fluoroanilino)-1-(2,2,2-trifluoroethyl)pyrazolo[4,3-c]pyridin-6-yl]-(4-hydroxy-4-methyl-1-piperidyl)methanone], the IC50 was under 100 nM at human A2A receptors and under 1000 nM at human A2B receptors.

As to `O=C(c1cc2c(cn1)c(Nc1ccc(F)cn1)nn2CC(F)(F)F)N1CCC[C@@H](F)C1` [Compound 99, [(3R)-3-fluoro-piperidin-1-yl]-[3-(5-Fluoro-pyridin-2-ylamino)-1-(2,2,2-trifluoro-ethyl)-1H-pyrazolo[4,3-c]pyridin-6-yl]methanone], the results for the IC50 at human A2A receptors and on human A2B receptors were under 100 nM and under 1000 nM, respectively.

As to `O=C(c1cc2c(cn1)c(Nc1ccc(F)cc1)nn2CC(F)(F)F)N1CCC(O)CC1` [Compound 22, [3-(4-fluoroanilino)-1-(2,2,2-trifluoroethyl)pyrazolo[4,3-c]pyridin-6-yl]-(4-hydroxy-1-piperidyl)methanone], the IC50 at human A2A receptors and at human A2B receptors was under 100 nM throughout.

`Cc1ccc(Nc2nn(CC(F)(F)F)c3cc(C(=O)N4CCCOCC4)ncc23)cc1F` [Compound 16, [3-(3-fluoro-4-methylanilino)-1-(2,2,2-trifluoroethyl)pyrazolo[4,3-c]pyridin-6-yl]-(1,4-oxazepan-4-yl)methanone]: the IC50 on human A2A receptors and on human A2B receptors was under 100 nM each time.

Turning to `O=C(c1cc2c(cn1)c(Nc1cccc(=O)[nH]1)nn2CC(F)(F)F)N1CCCOCC1` [Compound 86, 6-[6-([1,4]Oxazepane-4-carbonyl)-1-(2,2,2-trifluoro-ethyl)-1H-pyrazolo[4,3-c]pyridin-3-ylamino]-1H-pyridin-2-one], the IC50 on human A2A receptors was under 100 nM; at human A2B receptors it was under 1000 nM.

On to `O=C(c1cc2c(cn1)c(Nc1ccc(F)c(F)n1)nn2CC(F)(F)F)N1CCCOCC1` [Compound 80, [3-[(5,6-difluoro-2-pyridyl)amino]-1-(2,2,2-trifluoroethyl)pyrazolo[4,3-c]pyridin-6-yl]-(1,4-oxazepan-4-yl)methanone], for which the IC50 on human A2A receptors and on human A2B receptors was under 100 nM in each case.

As to `O=C(c1cc2c(cn1)c(Nc1cnccn1)nn2CC(F)(F)F)N1CCCOCC1` [Compound 61, 1,4-oxazepan-4-yl-[3-(pyrazin-2-ylamino)-1-(2,2,2-trifluoroethyl)pyrazolo[4,3-c]pyridin-6-yl]methanone], the IC50 on human A2A receptors and on human A2B receptors was under 100 nM throughout.
